According to US4803074A, “FR-900848 substance and preparation thereof” (priority 1987, dated 1989):
In brackets after ≈: the same amount, converted by molar mass.

Columns and labels:
[1] = test system: Aspergillus niger IFO 4417; experiment: MIC (minimal inhibitory concentration), two-fold agar-plate dilution method; type: cell-based; settings: IFO4417, malt extract agar, 37° C., 20 hours
Procedure: (§1) In vitro antimicrobial activity was determined by the two-fold agar-plate dilution method as described below.
(§2) One loopful of an overnight culture of each test strain in malt extract broth was streaked on malt extract agar containing graded concentrations of FR-900848 substance and MIC was determined after incubation at 37° C. for 20 hours.

Aureobasidium pullulans = experiment: as above; type: cell-based; settings: malt extract agar, 37° C., 20 hours
Procedure: as §1, §2

Fusarium oxysporum = experiment: as above; type: cell-based; settings: malt extract agar, 37° C., 20 hours
Procedure: as §1, §2

Geotrichum candidum = experiment: as above; type: cell-based; settings: malt extract agar, 37° C., 20 hours
Procedure: as §1, §2

[2] = test system: Mucor rouxianus (Calmette) Wehmer; experiment: as above; type: cell-based; settings: 20 h, read-out: MIC (minimal inhibitory concentration)
Procedure: as §1, §2

Sclerotinia arachidis = experiment: as above; type: cell-based; settings: malt extract agar, 37° C., 20 hours
Procedure: as §1, §2

Trichophyton asteroides = experiment: as above; type: cell-based; settings: malt extract agar, 37° C., 20 hours
Procedure: as §1, §2

fungi = experiment: In vitro antimicrobial activity (summary statement); type: cell-based; settings: for example Aspergillus niger, Geotrichum candidum, Trichophyton asteroides
Procedure: as §1, §2

[3] = Acute toxicity by intraperitoneal injection; settings: mouse, in vivo, ip, mice (ICR, male, 4 weeks old)
Description: Acute toxicity of FR-900848 substance in mice (ICR, male, 4 weeks old) by intraperitoneal injection is more than 1.0 g/kg.

Solubility = type: physicochemical

For CC1CC1C=CC1CC1C1CC1C1CC1C1CC1C=CC=CC(=O)NCC1OC(N2CCC(=O)NC2=O)C(O)C1O (centres unmarked) [FR-900848 substance], the MIC [1] was 0.015 µg/mL (≈ 0.0265 µM), the MIC (Aureobasidium pullulans) was 0.03 µg/mL (≈ 0.053 µM) and the MIC (Fusarium oxysporum) was 0.05 µg/mL (≈ 0.0884 µM). For the same molecule, the MIC (Geotrichum candidum) was 0.12 µg/mL (≈ 0.212 µM), the MIC [2] was 0.03 µg/mL (≈ 0.053 µM) and the MIC (Sclerotinia arachidis) was 0.05 µg/mL (≈ 0.0884 µM). For the same molecule, the MIC (Trichophyton asteroides) was 0.5 µg/mL (≈ 0.884 µM), the “antimicrobial activity against fungi” value (fungi) was “showed antimicrobial activity” and the LD50 [3] was greater than 1000 mg/kg. For the same molecule, the Solubility (Solubility; chloroform) was “slightly soluble”, the Solubility (Solubility; dimethylsulfoxide) was “soluble” and the Solubility (Solubility; ethyl acetate) was “slightly soluble”. For the same molecule, the Solubility (Solubility; methanol) was “slightly soluble” and the Solubility (Solubility; water) was “insoluble”.
